Like-named read-outs stand apart in the source and are kept apart here.

This test has as its target T1, hROMK (hKir1.1) (Homo sapiens, UniProt P48048).
T1 construct: expressed in transfected cells
T1 sequence (P48048 1-391): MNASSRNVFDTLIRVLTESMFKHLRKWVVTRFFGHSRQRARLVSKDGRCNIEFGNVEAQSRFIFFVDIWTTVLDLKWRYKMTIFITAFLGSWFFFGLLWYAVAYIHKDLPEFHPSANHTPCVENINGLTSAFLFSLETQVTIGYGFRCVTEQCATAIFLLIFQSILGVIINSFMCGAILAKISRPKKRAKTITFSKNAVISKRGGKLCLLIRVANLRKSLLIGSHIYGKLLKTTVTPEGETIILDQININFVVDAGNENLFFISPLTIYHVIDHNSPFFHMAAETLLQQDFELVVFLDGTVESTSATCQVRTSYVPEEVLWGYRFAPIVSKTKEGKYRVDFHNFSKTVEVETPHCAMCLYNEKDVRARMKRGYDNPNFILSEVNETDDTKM
Description: Thallium Flux Assay. The test is classed as cell-based. As for the experimental part:
Cell Culture Conditions- HEK293 cells stably expressing hROMK (hKir1.1) were grown at 37°C in a 10%CO2 humidified incubator in complete growth media: Dulbecco's Modified Eagle Medium supplemented with non-essential amino acids, Penicillin/Streptomycin/Glutamine, G418 and FBS. At >80% confluency, aspirate the media from the flask and rinse with 10 mL Calcium/Magnesium-free PBS. […] To dislodge the cell, gently bang the side of the flask with your hand. Triturate the cells completely and then transfer the cells to 25 mL complete media. Centrifuge at 1,500 rpm for 6 min followed by resuspension in complete growth media and determine cell concentration. […] Under ideal growth conditions and appropriate tissue culture practices, this cell line is stable for 40-45 passages.
• FluxOR™ Reagent (Component A) • FluxOR™ Assay Buffer (Component B) - 10X Concentrate • PowerLoad™ Concentrate (Component C) - 100X Concentrate • Probenecid (Component D) - Lyophilized sample is kept at -20°C. Water soluble, 100X after solubilization in 1 mL water. […] Store at 4°C. • Thallium sulfate (Tl2SO4) Concentrate (Component G) - 50 mM in water. Store at 4°C • DMSO (dimethyl sulfoxide, Component H) - 1 mL (100%)
• 1000X FluxOR™ Reagent: Reconstitute a vial of component A in 100 µl DMSO; Mix well; Store 10 µl aliquots at -20°C • 1X FluxOR™ Assay Buffer: Dilute Component B 10-fold with water; Adjust pH to 7.4 with Hepes/NaOH; Filter and store at 4°C • Probenecid/Assay Buffer: 100 mL of 1X FluxOR™ Assay Buffer; 1 mL of reconstituted component D; Store at 4°C • Loading Buffer (per microplate): 10 µl 1000X FluxOR™ Reagent; 100 µl component C; 10 mL Probenecid/Assay Buffer • Compound Buffer (per microplate): 20 mL Probenecid/Assay Buffer; 0.3 mM ouabain (10 mM ouabain in water can be stored in amber bottle/aluminum foil at room temperature); Test compound • 1X FluxOR™Chloride-Free Buffer: Prepare 1X working solution in water. Can be stored at room temperature • Stimulant Buffer (prepared at 5X final concentration in 1X FluxOR™Chloride-Free Buffer): 7.5 mM Thallium sulfate and 0.75 mM Potassium sulfate (to give a final assay concentration of 3 mM Thallium/ 0.3 mM Potassium). Store at 4°C when not in use. If kept sterile, this solution is good for months.
Assay protocol- The ROMK channel functional thallium flux assay is performed in 384 wells, using the FLIPR-Tetra instrument. HEK-hKir1.1 cells are seeded in Poly-D-Lysine microplates and kept in a 37°C-10%CO2 incubator overnight. On the day of the experiment, the growth media is replaced with the FluxOR™ reagent loading buffer and incubated, protected from light, at ambient temperature (23-25°C) for 90 min. The loading buffer is replaced with assay buffer ± test compound followed by 30 min incubation at ambient temperature, where the Thallium/Potassium stimulant is added to the microplate.
• 1. Seed HEK-hKir1.1 cells (50 µl at 20,000 cells/well) in 384-well PDL coated Microplates • 2. Allow cells to adhere overnight in humidified 37°C/10%CO2 incubator • 3. Completely remove cell growth media from microplate and replace with 25 µl loading buffer • 4. Incubate Microplate at room temperature, protected form light, for 90 min • 5. Remove loading buffer and replace with 25 µl 1x Assay Buffer ± test compound. • 6. Incubate microplate at room temperature, protected form light, for 30 min • 7. […] Excitation = 400 nm, Emission = 460 & 580 nm. Collect data for ∼ 10 min.
Data Calculation- The fluorescence intensity of wells containing 3 µM of a standard control ROMK inhibitor of the present invention is used to define the ROMK-sensitive component of thallium flux. Fluorescence in the presence of test compounds is normalized to control values to provide % fluorescence change.

Setting [1] is: HEK293 cells stably expressing hROMK (hKir1.1), FLIPR-Tetra, read-out: Thallium Flux IC50.

For `N#Cc1cc([C@@H]2CN3CCN(C(=O)Cc4cnc(-n5cnnn5)nc4)C[C@H]3CN2)ccc1F` [Example 197, 2-fluoro-5-[(3R,9aR)-8-{[2-(1H-tetrazol-1-yl)pyrimidin-5-yl]acetyl}octahydro-2H-pyrazino[1,2-a]pyrazin-3-yl]benzonitrile], the IC50 under setting [1] was 0.24 µM.

For the compound `COc1cc([C@H]2CN3CCN(C(=O)Cc4ccc(-n5cnnn5)nc4)C[C@H]3CO2)cc(F)c1C#N` [Example 113, 2-fluoro-6-methoxy-4-[(3S,9aS)-8-{[6-(1H-tetrazol-1-vl)pvridin-3-yl]acetyl}octahydropyrazino[2,1-c][1,4]oxazin-3-yl]benzonitrile], the IC50 under setting [1] was determined as 0.12 µM.

Consider `Cc1c([C@H]2CN3CCN(C(=O)C(F)(F)c4cnc(-n5cnnn5)nc4)C[C@H]3CO2)ccc(F)c1C#N` [Example 188, 3-((3S,9aS)-8-(2-(2-(1H-tetrazol-1-yl)pyrimidin-5-yl)-2,2-difluoroacetyl)octahydropyrazino[2,1-c][1,4]oxazin-3-yl)-6-fluoro-2-methylbenzonitrile], for which the IC50 under setting [1] was 0.35 µM.

`O=C1OCCc2cc([C@@H]3CN4CCN(C(=O)Cc5cnc(-n6cnnn6)nc5)C[C@H]4CO3)ccc21` [Example 145, 6-[(3R,9aS)-8-{[2-(1H-tetrazol-1-yl)pyrimidin-5-yl]acetyl}octahydropyrazino[2,1-c][1,4]oxazin-3-yl]-3,4-dihydro-1H-isochromen-1-one] yielded a half-maximal inhibitory concentration (IC50) (Thallium Flux IC50) of 0.24 µM.

On to `Cc1c([C@@H]2CN3CCN(C(=O)Nc4ccc(-n5cnnn5)cn4)C[C@H]3CO2)ccc(F)c1C#N` [Example 201, (3R,9aS)-3-(3-cyano-4-fluoro-2-methylphenyl)-N-[5-(1H-tetrazol-1-yl)pyridin-2-yl]hexahydropyrazino[2,1-c][1,4]oxazine-8(1H)-carboxamide], for which the concentration for half-maximal inhibition (IC50) under setting [1] came out at 0.32 µM.

Take `C[C@@H]1Cc2cc([C@]3(C)CN4CCN(C(=O)Cc5ccc(-n6cnnn6)nc5)C[C@H]4CO3)ccc2C(=O)O1` [Example 105, (3R)-3-methyl-6-[(3R,9a,S)-3-methyl-8-{[6-(1H-tetrazol-1-vl)pvridin-3-yl]acetyl}octahydropyrazino[2,1-c][1,4]oxazin-3-yl]-3,4-dihydro-1H-isochromen-1-one]: the IC50 under setting [1] was found to be 0.35 µM.

Consider `COc1cc([C@@H]2CN3CCN(C(=O)Cc4cnc(-n5cnnn5)cc4C)C[C@@H]3CO2)ccc1C#N` [Example 45, 2-methoxy-4-[(3R,9aR)-8-{[4-methyl-6-(1H-tetrazol-1-vl)pvridin-3-yl]acetyl}octahydropyrazino[2,1-c][1,4]oxazin-3-yl]benzonitrile], for which the half-maximal inhibitory concentration (IC50) under setting [1] is 0.25 µM.

Turning to `N#Cc1c(F)ccc([C@H]2CN3CCN(C(=O)Cc4ccc(-n5cnnn5)nc4)C[C@H]3CO2)c1Cl` [Example 10, 2-chloro-6-fluoro-3-[(3S,9aS)-8-{[6-(1H-tetrazol-1-yl)pvridin-3-yl]acetyl}octahydropyrazino[2,1-c][1,4]oxazin-3-yl]benzonitrile], under setting [1], the IC50 worked out at 0.07 µM.

`N#Cc1c(F)ccc([C@@H]2CN3CCN(C(=O)Cc4ccc(-n5cnnn5)nc4)C[C@H]3CO2)c1F` [Example 11, 2,6-difluoro-3-[(3R,9aS)-8{[6-(1H-tetrazol-1-yl)pyridin-3-yl]acetyl}octahydropyrazino[2,1-c][1,4]oxazin-3-yl]benzonitrile] came in with an IC50 (Thallium Flux IC50) of 0.09 µM.

`Cc1c([C@@H]2CN3CCN(C(=O)Cc4cnc(-n5cnnn5)nc4)C[C@H]3CO2)ccc2c1COC2=O` [Example 16]: under setting [1], the IC50 stood at 0.48 µM.

Take `Cc1c([C@@H]2CN3CCN(C(=O)Cc4ccc(-n5cnnn5)nc4)C[C@H]3CCO2)ccc(F)c1C#N` (single isomer, unassigned) [Example 171]: the IC50 under setting [1] turned out to be 0.27 µM.

Consider `Cc1cc([C@@H]2CN3CCN(C(=O)Cc4ccc(-n5cnnn5)nc4)C[C@@H]3CO2)c(C)c(C#N)c1F` [Example 174, 2-fluoro-3,6-dimethyl-5-[(3R,9aR)-8-{[6-(1H-tetrazol-1-vl)pvridin-3-yl]acetyl}octahydropyrazino[2,1-c][1,4]oxazin-3-yl]benzonitrile], for which, under setting [1], the IC50 was 0.35 µM.

In the case of `COc1cc([C@H]2CN3CCN(C(=O)Cc4cnc(-n5cnnn5)nc4)C[C@H]3CO2)ccc1C#N` [Example 143, 2-methoxy-4-[(3S,9aS)-8-{[2-(1H-tetrazol-1-yl)pyrimidin-5-yl]acetyl}octahydropyrazino[2,1-c][1,4]oxazin-3-yl]benzonitrile], the concentration for half-maximal inhibition (IC50) under setting [1] came out at 0.19 µM.

Turning to `Cc1c([C@@H]2CN3CCN(C(=O)Nc4ccc(-n5cnnn5)cn4)C[C@@H]3CO2)ccc(F)c1C#N` [Example 200, (3R,9aR)-3-(3-cyano-4-fluoro-2-methylphenyl)-N-[5-(1H-tetrazol-1-yl)pyridin-2-yl]hexahydropyrazino[2,1-c][1,4]oxazine-8(1H)-carboxamide], the concentration for half-maximal inhibition (IC50) under setting [1] came to 0.25 µM.

For the compound `Cc1c([C@H]2CN3CCN(C(=O)Cc4ccc(-n5cnnn5)nc4)C[C@H]3CCO2)ccc(F)c1C#N` (single isomer, unassigned) [Example 169], under setting [1], the 50% inhibitory concentration (IC50) stood at 0.18 µM.

As for `Cc1nc(CC(=O)N2CCN3C[C@H](c4ccc(F)c(C#N)c4C)OC[C@@H]3C2)ccc1-n1cnnn1` [Example 127, 6-fluoro-2-methyl-3-[(3S,9aS)-8-{[6-methyl-5-(1H-tetrazol-1-vl)pvridin-2-yl]acetyl}octahydropyrazino[2,1-c][1,4]oxazin-3-yl]benzonitrile], 0.09 µM corresponded to half-maximal inhibition (Thallium Flux IC50) (IC50).

As to `N#Cc1c(F)ccc([C@@H]2CN3CCN(C(=O)Cc4ccc(-n5cnnn5)nc4)C[C@H]3CO2)c1Cl` [Example 51, 2-chloro-6-fluoro-3-[(3R,9aS)-8-{[6-(1H-tetrazol-1-yl)pyridin-3-yl]acetyl}octahydropyrazino[2,1-c][1,4]oxazin-3-yl]benzonitrile], the IC50 under setting [1] was determined as 0.05 µM.

As for `COc1cc([C@@H]2CN3CCN(C(=O)Cc4ccc(-n5cnnn5)nc4)C[C@@H]3CO2)ccc1C#N` [Example 40, 2-methoxy-4-[(3R,9aR)-8-{[6-(1H-tetrazol-1-yl)pyridin-3-yl]acetyl}octahydropyrazino[2,1-c][1,4]oxazin-3-yl]benzonitrile], the half-maximal inhibitory concentration (IC50) under setting [1] turned out to be 0.07 µM.

As for `COc1cc([C@@H]2CN3CCN(C(=O)Cc4cnc(-n5cnnn5)nc4)C[C@H]3CO2)ccc1C#N` [Example 144, 2-methoxy-4-[(3R,9aS)-8-{[2-(1H-tetrazol-1-yl)pyrimidin-5-yl]acetyl}octahydropyrazino[2,1-c][1,4]oxazin-3-yl]benzonitrile], the half-maximal inhibitory concentration (IC50) under setting [1] came to 0.39 µM.

As for `Cc1c([C@H]2CN3CCN(C(=O)Cc4cnc(-n5cnnn5)c(F)c4)C[C@H]3CO2)ccc(F)c1C#N` [Example 149, 6-fluoro-3-[(3S,9aS)-8-{[5-fluoro-6-(1H-tetrazol-1-yl)pyridin-3-yl]acetyl}octahydropyrazino[2,1-c][1,4]oxazin-3-yl]-2-methylbenzonitrile], the 50% inhibitory concentration (IC50) under setting [1] is 0.13 µM.

The IC50 is the concentration at which inhibition is half-maximal.
